In ChEMBL document CHEMBL1127695, “Rational modification of human synovial fluid phospholipase A2 inhibitors” (J Med Chem, 1994):

Assays:
[1] = biological target: Phospholipase A2, major isoenzyme (Sus scrofa) (UniProt P00592); assay: Tested for the inhibition of porcine pancreatic enzyme; conditions: concentration not given here
[2] = biological target: T1, Phospholipase A2, membrane associated (Homo sapiens) (UniProt P14555); assay: Tested for the inhibition of human synovial fluid enzyme phospholipase A2 (PLA2); conditions: concentration not given here
T1 sequence (whole entry): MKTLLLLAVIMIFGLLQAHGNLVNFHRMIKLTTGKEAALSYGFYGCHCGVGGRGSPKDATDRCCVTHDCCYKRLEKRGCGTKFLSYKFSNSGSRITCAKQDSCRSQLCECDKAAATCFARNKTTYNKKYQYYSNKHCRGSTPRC

[3] = biological target: T1, Phospholipase A2, membrane associated (Homo sapiens); assay: Tested for the inhibition of human synovial fluid phospholipase A2

Phospholipase A2, major isoenzyme (Sus scrofa), sequence (P00592 23-146 limits assumed): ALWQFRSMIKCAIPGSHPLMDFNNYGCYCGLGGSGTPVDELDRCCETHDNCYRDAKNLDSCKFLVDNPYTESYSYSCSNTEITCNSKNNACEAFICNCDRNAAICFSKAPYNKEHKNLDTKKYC

inhibition [1] [%]	inhibition [2] [%]	X1(50) (mole fraction) [3]	SMILES
43	66		CCCCCCCCCCS(=O)(=O)NC(CCCCCC)COP(=O)(O)OCCO (stereo not drawn)
		0.025	CCCCCCCCOC[C@H](COP(=O)(O)OCCN)OP(=O)(O)CCCCCCC
